The conditions of assay [1]: fenbufen analogs, Child, et al.; cited from earlier work.
In assay [2] the target is T1, Human Recombinant Gelatinase B (MMP-9) (Homo sapiens, UniProt P14780).
T1 construct: made in house
Description: P218 quenched fluorescence (microfluorometric profiling) assay, MMP-9. Format: biochemical. The method, then:
The assay was run with each invention compound and the three MMPs, Mmp-3, MMP-9 and MMP-2, analyzed in parallel, adapted as follows for a 96-well microtiter plate and a Hamilton AT® workstation. […] P218 is currently being produced BACHEM exclusively for Bayer. P218 has the structure: […] The enzyme was dialyzed against the same buffer to remove the APMA. Hamiltion Microlab AT Plus: The MMP-Profiling Assay is performed robotically on a Hamilton MicroLab AT Plus®. The Hamilton is programmed to: (1) serially dilute up to 11 potential inhibitors automatically from a 2.5 mM stock in 100% DMSO; (2) distribute substrate followed by inhibitor into a 96 well Cytofluor plate; and (3) add a single enzyme to the plate with mixing to start the reaction. Subsequent plates for each additional enzyme are prepared automatically by beginning the program at the substrate addition point, remixing the diluted inhibitors and beginning the reaction by addition of enzyme. In this way, all MMP assays were done using the same inhibitor dilutions. Millipore Cytofluor II. […] MMP Microfluorometric Profiling Assay. […] The Hamilton is programmed to serially dilute up to 11 compounds from a 2.5 mM stock (100% DMSO) to 10× the final compounds concentrations in the assay. Initially, the instrument delivers various amounts of microfluoromentric reaction buffer (MRB) to a 96 tube rack of 1 ml Marsh dilution tubes. The instrument then picks up 20 μl of inhibitor (2.5 mM) from the sample rack and mixes it with a buffer in row A of the Marsh rack, resulting in a 50 μM drug concentration. The inhibitors are then serially diluted to 10, 5, 1, 0.2, 0.05 and 0.01 μM. […] The instrument re-mixes and loads 14.5 μl of diluted compound from rows A to G in the Marsh rack to corresponding rows in the microtiter plate. (Row H represents the "background" row and 39.5 μl of MRB is delivered in placed of drug or enzyme). […] After addition and mixing of the enzyme, the plate is covered and incubated for 25 min. at 37° C. Additional enzymes are tested in the same manner by beginning the Hamilton program with the distribution of P218 substrate to the microtiter plate, followed by re-mixing and distribution of the drug from the same Marsh rack to the microtiter plate. The second (or third, etc.) MMP to be tested is then distributed from a reagent rack to the microtiter plate with mixing, prior to covering and incubation. This is repeated for all additional MMP's to be tested. IC50 and Ki Determination in Microfluorometric Assay: Data generated on the Cytofluor II is copied from an exported ".CSV" file to a master Excel spreadsheet. […] The percent inhibition is determination for each drug concentration by comparing the amount of hydrolysis (fluorescence units generated over 25 minutes of hydrolysis) of wells containing compound with the "enzyme only" wells in column 1. Following subtraction of the background the percent inhibition was calculated as: ((Control values-Treated values)/Control values)×100 Percent inhibitions were determined for inhibitor concentrations of 5, 1, 0.5, 0.1, 0.02, 0.005 and, 0.001 μM of drug. Linear regression analysis of percent inhibition versus log inhibitor concentration was used to obtain IC50 values.

Assay [3] concerns the target T2, Human Recombinant Gelatinase A (MMP-2) (Homo sapiens, UniProt P08253).
T2 sequence (P08253 110-660): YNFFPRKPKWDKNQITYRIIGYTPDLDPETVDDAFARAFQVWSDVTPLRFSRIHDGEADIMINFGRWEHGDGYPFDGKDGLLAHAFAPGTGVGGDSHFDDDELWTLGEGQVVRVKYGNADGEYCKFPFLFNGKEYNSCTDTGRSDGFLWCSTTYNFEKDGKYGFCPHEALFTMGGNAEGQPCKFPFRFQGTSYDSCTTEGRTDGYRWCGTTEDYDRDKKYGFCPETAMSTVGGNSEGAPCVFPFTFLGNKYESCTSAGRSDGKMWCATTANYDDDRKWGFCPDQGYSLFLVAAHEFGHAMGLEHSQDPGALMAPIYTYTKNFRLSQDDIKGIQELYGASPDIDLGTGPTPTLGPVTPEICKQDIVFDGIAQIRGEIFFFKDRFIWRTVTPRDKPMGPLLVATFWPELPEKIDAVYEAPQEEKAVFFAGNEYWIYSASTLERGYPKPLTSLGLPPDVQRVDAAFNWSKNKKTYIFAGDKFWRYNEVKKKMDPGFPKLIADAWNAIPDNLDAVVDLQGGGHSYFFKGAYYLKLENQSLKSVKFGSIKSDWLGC
Description: P218 quenched fluorescence (microfluorometric profiling) assay, MMP-2. Format: biochemical.

The target in assay [4] is T3, Recombinant Human CHO Stromelysin (MMP-3) (Homo sapiens, UniProt P08254).
T3 construct: made in house; host or cells: CHO cells
T3 sequence (P08254 100-477): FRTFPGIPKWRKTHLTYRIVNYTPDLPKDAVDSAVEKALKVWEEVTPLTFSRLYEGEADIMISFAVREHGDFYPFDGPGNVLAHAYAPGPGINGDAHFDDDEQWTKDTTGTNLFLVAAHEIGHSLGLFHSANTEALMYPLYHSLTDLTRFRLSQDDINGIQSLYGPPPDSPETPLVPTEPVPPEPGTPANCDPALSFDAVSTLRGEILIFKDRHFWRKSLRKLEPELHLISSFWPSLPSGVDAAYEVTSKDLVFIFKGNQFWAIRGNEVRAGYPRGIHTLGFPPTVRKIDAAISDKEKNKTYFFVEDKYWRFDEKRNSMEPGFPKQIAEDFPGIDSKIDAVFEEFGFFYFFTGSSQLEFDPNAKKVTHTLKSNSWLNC
Put plainly: P218 quenched fluorescence (microfluorometric profiling) assay, MMP-3. Format: biochemical.
Description: P218 is a synthetic substrate containing a 4-acetyl-7-methoxycoumarin (MCA) group in the N-terminal position and a 3-[2, 4-dinitrophenyl]-L-2,3-diaminopropionyl (DPA) group internally.
The reaction was stopped by addition of soybean trypsin inhibitor (SBTI; 5:1 w/w to trypsin concentration). This activation protocol results in the formation of 45 kDa active MMP-3, which still contains the C-terminal portion of the enzyme.
Microfluorometric Reaction Buffer (MRB): Dilution of test compounds, enzymes, and P218 substrate for the microfluorometric assay were made in microfluorometric reaction buffer consisting of 50 mM 2-(N-morpholino)ethanesulfonic acid (MES) at pH 6.5 with 10 mM CaCl2, 150 mM NaCl, 0.005% Brij-35 and 1% DMSO.
MMP Microfluorometric Profiling Assay. The assay is done with a final substrate concentration of 6 μM P218 and approximately 0.5 to 0.8 nM MMP with variable drug concentrations. The Hamilton is programmed to serially dilute up to 11 compounds from a 2.5 mM stock (100% DMSO) to 10× the final compounds concentrations in the assay. Initially, the instrument delivers various amounts of microfluoromentric reaction buffer (MRB) to a 96 tube rack of 1 ml Marsh dilution tubes. The instrument then picks up 20 μl of inhibitor (2.5 mM) from the sample rack and mixes it with a buffer in row A of the Marsh rack, resulting in a 50 μM drug concentration. The inhibitors are then serially diluted to 10, 5, 1, 0.2, 0.05 and 0.01 μM. […] The instrument re-mixes and loads 14.5 μl of diluted compound from rows A to G in the Marsh rack to corresponding rows in the microtiter plate. (Row H represents the "background" row and 39.5 μl of MRB is delivered in placed of drug or enzyme). […] (The enzyme reservoir is pretreated with 1% BSA in 50 mM Tris, pH 7.5 containing 150 mM NaCl for 1 hour at room temp., followed by extensive H2 O washing and drying at room temp.).
IC50 and Ki Determination in Microfluorometric Assay: Data generated on the Cytofluor II is copied from an exported ".CSV" file to a master Excel spreadsheet. Data from several different MMPs (one 96 well plate per MMP) were calculated simultaneously. The percent inhibition is determination for each drug concentration by comparing the amount of hydrolysis (fluorescence units generated over 25 minutes of hydrolysis) of wells containing compound with the "enzyme only" wells in column 1.

The test system of another assay is human colon tumor. Conditions: intraperitoneally; orthotopic model in nude mice; cited from earlier work.
In assay [5] the test system is human ovarian carcinoma xenografts. The note with it: batimastat given intraperitoneally; cited from earlier work.
The mark [6] stands for this setting: P218 6 μM, pH 6.5, 25 min, 37° C., read-out: MMP-2 Ki.
Setting [7] is: P218 6 μM, pH 6.5, 25 min, 37° C., read-out: MMP-9 Ki.
Where [8] appears, read: P218 6 μM, pH 6.5, 25 min, 37° C., read-out: MMP-3 Ki.

The structures appear in SMILES notation. Read-outs that look alike come from different tables or passages of the source.

Results on 13 compounds are retold here after US5804581A, “Inhibition of matrix metalloproteases by substituted phenalkyl compounds” (Bayer Corporation, priority 1997, dated 1998).

The Ki is a measure of affinity in units of concentration, obtained from inhibition or displacement.

T1 sequence (P14780 107-707 limits assumed): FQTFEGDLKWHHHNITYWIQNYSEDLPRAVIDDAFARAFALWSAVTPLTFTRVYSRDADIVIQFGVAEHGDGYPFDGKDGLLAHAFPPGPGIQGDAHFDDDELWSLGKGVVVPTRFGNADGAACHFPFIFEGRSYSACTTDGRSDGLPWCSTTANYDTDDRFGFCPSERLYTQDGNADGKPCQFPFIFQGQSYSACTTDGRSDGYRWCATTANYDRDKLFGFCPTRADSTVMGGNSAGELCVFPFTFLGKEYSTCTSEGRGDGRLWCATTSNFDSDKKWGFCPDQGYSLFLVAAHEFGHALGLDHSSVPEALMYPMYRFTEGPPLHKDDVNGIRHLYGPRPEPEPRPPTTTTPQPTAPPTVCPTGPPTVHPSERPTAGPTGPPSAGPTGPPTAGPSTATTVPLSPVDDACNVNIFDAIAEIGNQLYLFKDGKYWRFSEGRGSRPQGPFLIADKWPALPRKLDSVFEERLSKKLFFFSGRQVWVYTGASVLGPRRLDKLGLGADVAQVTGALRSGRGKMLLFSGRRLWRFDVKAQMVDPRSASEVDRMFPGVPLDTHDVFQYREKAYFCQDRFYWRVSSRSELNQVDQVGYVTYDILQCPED

For the compound `O=C(O)CC(C(=O)c1ccc(-c2ccccc2)cc1)c1ccccc1` (centres unmarked) [LXXVII], in assay [1], the “activity as anti-inflammatory analgesic agents” value (from here on “activity”) was “inactive”.

Take `O=C(CC(CCc1ccc(C(=O)NCCN2CCOCC2)cc1)C(=O)O)c1ccc(-c2ccc(Cl)cc2)cc1` (centres unmarked) [XXIX]: the Ki in assay [2] (read-out: MMP-9 Ki, P218 6 μM, pH 6.5, 25 min, 37° C.) turned out to be 449 nM; in assay [3] (setting [6]), 81.4 nM; in assay [4] (read-out: MMP-3 Ki, P218 6 μM, pH 6.5, 25 min, 37° C.), 465 nM.

Regarding `O=C(CC(CCc1ccccc1C(=O)N1CCCCC1)C(=O)O)c1ccc(-c2ccc(OCc3ccccc3)cc2)cc1` (centres unmarked) [Compound XXXII], the Ki in assay [2] (setting [7]) came to 167 nM; in assay [3], 13 nM; in assay [4] (setting [8]), 14.8 nM.

As to `O=C(CC(CCc1cccc(C(=O)N2CCCCC2)c1)C(=O)O)c1ccc(-c2ccc(Cl)cc2)cc1` (stereo not drawn) [XI, 4'-chloro-γ-oxo-α-[2-[3-(1-piperidinylcarbonyl)phenyl]ethyl]-[1,1'-biphenyl]-4-butanoic acid], the Ki was 58.1 nM in assay [2] (setting [7]), 10.3 nM in assay [3] (setting [6]) and 34.4 nM in assay [4] (setting [8]).

With `CNC(=O)[C@H](Cc1ccccc1)NC(=O)[C@H](CC(C)C)[C@H](CSc1cccs1)C(=O)NO` [batimastat], in the assay with human colon tumor, the “human colon tumor growth and spread” value is “inhibits human colon tumor growth and spread”. The “survival of mice bearing human ovarian carcinoma xenografts” value in assay [5] was “prolongs the survival”.

As for `CCOC(=O)CCNC(=O)c1ccccc1CCC(CC(=O)c1ccc(-c2ccc(Cl)cc2)cc1)C(=O)O` (centres unmarked) [VII], the inhibition constant Ki in assay [2] is 478 nM; in assay [3], 27.1 nM; in assay [4], 131 nM.

On to `O=C(O)CCNC(=O)c1cccc(CCC(CC(=O)c2ccc(-c3ccc(Cl)cc3)cc2)C(=O)O)c1` (stereo not drawn) [Compound XXVI, α-[2-[3-[[(2-carboxyethyl)amino]carbonyl]phenyl]ethyl]-4'-chloro-γ-oxo-[1,1'-biphenyl]-4-butanoic acid], for which the inhibition constant (Ki) turned out to be 706 nM in assay [2] (setting [7]), 76.6 nM in assay [3] (setting [6]) and 178 nM in assay [4] (setting [8]).

On to `O=C(CC(CCc1cccc(C(=O)NCCN2CCOCC2)c1)C(=O)O)c1ccc(-c2ccc(Cl)cc2)cc1` (stereo not drawn) [XXVII, 4'-chloro-α-[2-[3-[[[2-(-morpholinyl)ethyl]amino]carbonyl]phenyl]ethyl]-γ-oxo-[1,1'-biphenyl]-4-butanoic acid], for which the Ki in assay [2] (setting [7]) is 786 nM; in assay [3], 48 nM; in assay [4] (setting [8]), 353 nM.

For `O=C(CC(CCc1ccccc1C(=O)N1CCOCC1)C(=O)O)c1ccc(-c2ccc(Cl)cc2)cc1` (centres unmarked) [II], the figures for the Ki in assay [2], in assay [3] (setting [6]) and in assay [4] were 323 nM, 12.1 nM and 122 nM, respectively.

For `CC(CC(=O)c1ccc(-c2ccccc2)cc1)C(=O)O` (centres unmarked) [XLVII], the “activity” value in assay [1] is “inactive”.

Consider `O=C(CC(CCc1ccccc1C(=O)NCCN1CCOCC1)C(=O)O)c1ccc(-c2ccc(Cl)cc2)cc1` (stereo not drawn) [Compound XXV, 4'-chloro-α-[2 [2-[[[2-(4-morpholinyl)ethyl]amino]carbonyl]phenyl]ethyl]-γ-oxo-[1,1'-biphenyl]-4-butanoic acid], for which the Ki was 744 nM in assay [2] (setting [7]), 51.4 nM in assay [3] (setting [6]) and 371 nM in assay [4] (setting [8]).

Turning to `O=C(CC(CCc1ccc(C(=O)N2CCOCC2)cc1)C(=O)O)c1ccc(-c2ccc(Cl)cc2)cc1` (stereo not drawn) [XVII, 4'-chloro-α-[2-[4-(4-morpholinylcarbonyl)phenyl]ethyl]-γ-oxo-[1,1'-biphenyl]-4-butanoic acid], the Ki in assay [2] was determined as 606 nM; in assay [3] (setting [6]), 53.6 nM; in assay [4], 236 nM.

Consider `O=C(CC(C(=O)O)c1ccccc1)c1ccc(-c2ccccc2)cc1` (centres unmarked) [XLIX], for which, in assay [1], the “activity” value is “inactive”.
